Literature values in patent publication US5703067A, “Inhibitors of farnesyl-protein transferase” (Merck & Co., Inc., priority 1995, dated 1997).

System: farnesyl-protein transferase
Details: via HMG-CoA reductase inhibition, literature

Row | Structure (SMILES) | Indirect inhibition of farnesyl-protein transferase in vivo
1 | CC[C@H](C)C(=O)O[C@H]1CCC=C2C=C[C@H](C)[C@H](CC[C@@H]3C[C@@H](O)CC(=O)O3)[C@H]21 [compactin] | Indirect inhibition of farnesyl-protein transferase in vivo has been demonstrated
2 | CC[C@H](C)C(=O)O[C@H]1C[C@@H](C)C=C2C=C[C@H](C)[C@H](CC[C@@H]3C[C@@H](O)CC(=O)O3)[C@H]21 [lovastatin] | Indirect inhibition of farnesyl-protein transferase in vivo has been demonstrated
